What all share (format): cell-based
The target in experiment [1] is T1, dopamine D1 receptor (Homo sapiens, UniProt P21728).
T1 construct: host or cells: LMtk (Ltk−) mouse fibroblast cells
The experiment can be described thus: cAMP HTRF potentiation assay (presence of EC20 dopamine). The source says: (§1) Assays have been designed to measure the effects of compounds in accordance with the present invention in the absence of dopamine (“activation assay”) and in the presence of dopamine (“potentiation assay”).
The potentiation assay measures the ability of compounds to increase the levels of cAMP produced by a low-threshold concentration of dopamine. The concentration of dopamine used ([EC20]) is designed to produce 20% stimulation compared to the maximal response (100%) seen with increasing the concentration of dopamine. To measure this potentiation increasing concentrations of the compound with the [EC20] of dopamine are incubated and the potentiation is measured as increases in cAMP production and concentration of compound which produces 50% of the potentiation of the cAMP levels is measured.
(§2) Cells were cultured at 37° C. in a humidified atmosphere of 5% CO2. […]
(§3) The measurement of changes in intracellular cyclic adenosinemonophopshpate (cAMP) was determined using the HTRF cAMP dynamic assay kit from CisBio (Codolet, France). Using homogenous time-resolved fluorescence technology, the assay is based on competition between native cAMP produced by cells and cAMP labelled with the dye d2. The tracer binding is determined by an anti-cAMP antibody labeled with cryptate. […]
In general terms: TR-FRET usually uses a lanthanide donor and a delayed reading to cut background.

Experiment [2] deals with T2, human GABAA receptor α1,β2 and γ2 subunits (Homo sapiens, UniProt P14867+P18507+P47870).
T2 construct: expressed in transfected cells; host or cells: CHO-K1 cells
T2 sequence (P14867 28-456): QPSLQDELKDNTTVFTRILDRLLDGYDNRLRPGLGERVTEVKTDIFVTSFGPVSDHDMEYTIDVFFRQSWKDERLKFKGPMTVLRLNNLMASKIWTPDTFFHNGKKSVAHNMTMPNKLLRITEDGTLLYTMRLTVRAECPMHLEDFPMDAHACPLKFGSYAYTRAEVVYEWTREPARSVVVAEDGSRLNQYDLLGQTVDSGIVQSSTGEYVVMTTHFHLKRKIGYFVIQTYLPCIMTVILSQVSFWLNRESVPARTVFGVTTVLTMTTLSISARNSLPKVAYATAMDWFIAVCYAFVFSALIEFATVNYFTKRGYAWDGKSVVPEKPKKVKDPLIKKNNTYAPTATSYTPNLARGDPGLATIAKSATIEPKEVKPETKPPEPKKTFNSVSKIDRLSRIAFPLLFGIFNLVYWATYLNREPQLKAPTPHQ
T2 sequence (P47870 25-512 limits assumed): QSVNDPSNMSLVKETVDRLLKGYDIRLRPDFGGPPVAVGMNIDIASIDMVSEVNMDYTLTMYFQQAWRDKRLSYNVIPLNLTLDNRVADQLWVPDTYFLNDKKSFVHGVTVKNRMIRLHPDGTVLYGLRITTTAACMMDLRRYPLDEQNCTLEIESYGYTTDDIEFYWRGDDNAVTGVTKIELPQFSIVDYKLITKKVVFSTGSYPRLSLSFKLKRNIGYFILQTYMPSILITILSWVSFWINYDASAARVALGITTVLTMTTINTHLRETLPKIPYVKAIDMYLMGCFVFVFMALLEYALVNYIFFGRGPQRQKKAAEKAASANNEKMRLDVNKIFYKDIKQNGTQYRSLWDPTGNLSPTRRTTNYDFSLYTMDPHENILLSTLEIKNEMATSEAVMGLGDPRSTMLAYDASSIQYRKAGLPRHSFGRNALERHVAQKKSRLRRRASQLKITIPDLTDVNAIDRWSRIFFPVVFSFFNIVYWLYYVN
T2 sequence (P18507 40-475): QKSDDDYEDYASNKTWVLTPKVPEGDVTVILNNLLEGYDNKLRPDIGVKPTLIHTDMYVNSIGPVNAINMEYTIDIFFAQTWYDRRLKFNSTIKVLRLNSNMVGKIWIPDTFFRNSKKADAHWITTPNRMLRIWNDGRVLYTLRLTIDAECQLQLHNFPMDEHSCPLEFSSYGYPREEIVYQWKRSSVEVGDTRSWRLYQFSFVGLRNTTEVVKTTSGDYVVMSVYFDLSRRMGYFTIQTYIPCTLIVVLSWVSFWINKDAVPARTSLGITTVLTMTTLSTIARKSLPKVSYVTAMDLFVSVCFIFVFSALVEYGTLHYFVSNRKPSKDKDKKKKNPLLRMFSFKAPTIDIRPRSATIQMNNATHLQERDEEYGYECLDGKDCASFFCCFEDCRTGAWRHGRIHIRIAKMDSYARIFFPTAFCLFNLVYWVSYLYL
The experiment can be described thus: Automated patch clamp GABAA receptor inhibition assay (IonFlux HT). Particulars: 10 μM compound, 15 μM GABA, CHO-K1 cells, holding potential −60 mV; read-out: percentage of inhibition of the GABAA receptor. As for the experimental part: CHO-K1 cells stably expressing human GABAA receptor α1,β2 and γ2 subunits were used. The cells were harvested using trypsin and maintained in serum-free medium at room temperature. The cells were washed and re-suspended in extracellular solution before testing.
Experiments on human GABAA (α1β2γ2) channels were conducted using an automated patch clamp assay (IonFlux™ HT). Compounds were tested at 3 concentrations (0.1, 1, and 10 μM) in 3 to 4 cells. The external solution for recording GABAA currents was composed of sodium chloride 137 mM, potassium chloride 4 mM, calcium chloride 1.8 mM, magnesium chloride 1 mM, HEPES 10 mM, and glucose 10 mM. Both external and internal solutions were titrated with NaOH or KOH to obtain a pH of 7.35 or 7.3, respectively. The internal pipette solution contained potassium fluoride 70 mM, potassium chloride 60 mM, sodium chloride 70 mM, HEPES 5 mM, EGTA 5 mM, and Magnesium ATP 4 mM. The final concentration of vehicle used to dilute compounds was 0.33% DMSO in each well. Bicuculline (0.032 to 100 μM) was used as positive control inhibitor. GABA (15 μM) was used as agonist. […]
The compound addition sequence was the following: one addition of the EC80 concentration of GABA was added to establish baseline response. […] Peak inward currents in response to the GABA additions in the presence of a single concentration of compound were measured. […]
Background: Patch clamp records ionic current or voltage across a cell membrane.

The target in experiment [3] is T1, dopamine D1 receptor. The experiment in a line: cAMP HTRF activation assay (absence of dopamine). Particulars: 10 μM compound, LMtk (Ltk−) cells expressing D1, read-out: activation (compared to dopamine maximal response).
Excerpt: as §1
The activation assay measures the stimulation of the production of cyclic adenosinemonophosphate (cAMP) in the Homogeneous Time Resolved Fluorescent (HTRF) assay, with the maximum increase in cAMP by increasing concentrations of the endogenous agonist, dopamine, defined as 100% activation.
as §2
as §3, with “cryptate. The effects of the compound alone (agonism) was determined by performing the assay in the absence of dopamine, whilst the effect of the compound as a positive allosteric modulator (PAM) was determined in the presence of an EC20 concentration of dopamine.” for “cryptate.”

Where “and” joins values, the source holds several entries; their conditions need not be identical. Identical values can stand only once. Bounds are passed on as bounds.

Here are results for one molecule from patent publication US12649726B2, “Substituted tetrahydroisoquinoline derivative as a D1 positive allosteric modulator” (UCB Biopharma SRL, priority 2020, dated 2026).

What is called EC50 is the concentration at which the effect is half-maximal. What is called inhibition is the drop in the measured response relative to a control, in per cent.

T1 sequence (P21728 whole entry): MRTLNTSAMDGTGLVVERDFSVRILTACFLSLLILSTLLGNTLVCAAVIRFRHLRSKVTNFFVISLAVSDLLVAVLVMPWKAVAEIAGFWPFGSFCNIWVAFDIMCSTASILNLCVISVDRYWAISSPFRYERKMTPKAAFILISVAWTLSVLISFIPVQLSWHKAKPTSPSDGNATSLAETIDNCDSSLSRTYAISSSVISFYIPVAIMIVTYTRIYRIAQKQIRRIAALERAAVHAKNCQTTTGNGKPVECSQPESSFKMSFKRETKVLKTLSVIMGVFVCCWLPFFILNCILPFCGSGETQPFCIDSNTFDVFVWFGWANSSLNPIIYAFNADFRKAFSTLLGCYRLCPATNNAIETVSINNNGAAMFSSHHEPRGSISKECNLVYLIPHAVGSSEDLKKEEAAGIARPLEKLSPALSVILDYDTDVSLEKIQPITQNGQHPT

With `C[C@H]1c2cccc(C(C)(C)O)c2C[C@H](CO)N1C(=O)Cc1c(Cl)ccc2[nH]nc(Cl)c12` [compound of formula (I), 2-(3,5-dichloro-1H-indazol-4-yl)-1-[(1S,3R)-3-(hydroxymethyl)-5-(1-hydroxy-1-methyl-ethyl)-1-methyl-3,4-dihydro-1H-isoquinolin-2-yl]ethanone], the “Erel (relative efficacy, maximal % potentiation vs dopamine maximal response)” value in experiment [1] (in presence of [EC20] dopamine (1.1 nM), dopamine maximum = 100%) is recorded as “about 62%”. Moreover, in experiment [1] (potentiation of cAMP in presence of [EC20] dopamine (1.1 nM), LMtk (Ltk−) cells expressing D1), the EC50 was ~6.31 nM and < 31.6 nM. For the same molecule, the inhibition at 10 µM in experiment [2] is less than 0.1%. Further, the Emax at 10 µM in experiment [3] was less than 20%.
